This is an account of results in ChEMBL document CHEMBL1131059, “Synthesis and biological activity of a new series of N6-arylcarbamoyl, 2-(Ar)alkynyl-N6-arylcarbamoyl, and N6-carboxamido derivatives of adenosine-5'-N-ethyluronamide as A1 and A3 adenosine receptor agonists” (J Med Chem, 1998).

Broadly, the Ki is a measure of affinity in units of concentration, obtained from inhibition or displacement. One may read the inhibition as the drop in the measured response relative to a control, in per cent. A lower inhibition goes with a response near the control.

Test [1] has as its target Adenosine receptor A2a (Rattus norvegicus, UniProt P30543).
Description: Binding affinity against adenosine A2A receptor in rat striatal membranes using [3H]-CGS- 21680.
Test [2] deals with T1, Adenosine receptor A1 (Rattus norvegicus, UniProt P25099).
T1 sequence (P25099 whole entry): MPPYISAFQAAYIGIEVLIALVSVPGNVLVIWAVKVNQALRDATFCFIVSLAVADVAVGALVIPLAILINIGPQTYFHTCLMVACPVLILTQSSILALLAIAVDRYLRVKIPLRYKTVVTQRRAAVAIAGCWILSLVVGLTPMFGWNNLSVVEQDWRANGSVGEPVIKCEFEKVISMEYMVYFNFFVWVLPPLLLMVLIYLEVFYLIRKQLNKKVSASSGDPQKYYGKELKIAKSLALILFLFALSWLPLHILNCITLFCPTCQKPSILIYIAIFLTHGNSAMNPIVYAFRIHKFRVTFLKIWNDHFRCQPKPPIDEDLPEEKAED
Description: Binding affinity against adenosine A1 receptor in rat brain membranes using [3H]R-PIA.

For test [3], the target named is T2, Adenosine receptor A3 (Rattus norvegicus, UniProt P28647).
T2 sequence (P28647 whole entry): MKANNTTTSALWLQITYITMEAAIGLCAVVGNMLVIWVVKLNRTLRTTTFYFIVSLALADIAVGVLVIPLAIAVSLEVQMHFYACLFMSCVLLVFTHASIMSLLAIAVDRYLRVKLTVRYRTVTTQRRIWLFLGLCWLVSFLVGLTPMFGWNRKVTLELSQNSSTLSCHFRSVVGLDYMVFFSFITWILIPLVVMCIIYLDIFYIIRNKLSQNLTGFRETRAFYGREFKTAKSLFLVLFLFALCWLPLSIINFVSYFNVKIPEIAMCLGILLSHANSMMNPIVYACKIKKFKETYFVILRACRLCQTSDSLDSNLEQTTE
Nature of the test: biochemical.
Description: Binding affinity against rat adenosine A3 receptor expressed in CHO cells using [125I]-.

In test [4] the target is Adenosine receptors; A1 & A3 (Rattus norvegicus) (UniProt P25099+P28647). The experiment in a line: Selectivity for binding affinity towards A1 adenosine receptor in rat brain membrane and rat A3 receptor expressed in CHO cells. The test is classed as cell-based.
Test [5] addresses Adenosine receptor A2a (Rattus norvegicus) (UniProt P30543). Nature of the test: Binding affinity against Adenosine A2A receptor of rat striatal membranes using [3H]- CGS 21680 at 10E-4. Conditions: concentration not given here.

Chain of Adenosine receptor A2a (Rattus norvegicus) (P30543 whole entry): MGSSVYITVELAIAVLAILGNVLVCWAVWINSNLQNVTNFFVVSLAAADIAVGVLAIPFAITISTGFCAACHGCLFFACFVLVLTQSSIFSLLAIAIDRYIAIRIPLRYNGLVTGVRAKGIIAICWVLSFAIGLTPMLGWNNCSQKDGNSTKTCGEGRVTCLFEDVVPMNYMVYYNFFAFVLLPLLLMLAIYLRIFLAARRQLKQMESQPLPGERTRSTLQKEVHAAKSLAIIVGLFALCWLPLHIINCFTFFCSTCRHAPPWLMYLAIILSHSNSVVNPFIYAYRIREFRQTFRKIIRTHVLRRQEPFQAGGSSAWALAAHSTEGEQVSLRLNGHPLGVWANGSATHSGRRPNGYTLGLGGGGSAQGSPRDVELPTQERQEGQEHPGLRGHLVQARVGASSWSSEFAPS
Chain of Adenosine receptor A2a (P30543 whole entry): as above

As to `CCNC(=O)[C@H]1O[C@@H](n2cnc3c(NC(=O)NCCc4ccc(OC)c(OC)c4)ncnc32)[C@H](O)[C@@H]1O`, the values for the Ki in test [1], in test [2] and in test [3] were 1570 nM, 1770 nM and 411 nM, respectively. For the same molecule, the Ratio in test [4] stood at 4.3.
For `CCNC(=O)[C@H]1O[C@@H](n2cnc3c(NC(=O)Nc4cccc(Cl)c4)nc(Cl)nc32)[C@H](O)[C@@H]1O`, the inhibition constant Ki in test [1] was found to be 557 nM; in test [2], 90 nM; in test [3] it was 77.6 nM. For the same molecule, in test [4], the Ratio is 1.2.
With `CCNC(=O)[C@H]1O[C@@H](n2cnc3c(NC(=O)Nc4cc(C)on4)ncnc32)[C@H](O)[C@@H]1O`, in test [4], the Ratio is 0.27.
`CCNC(=O)[C@H]1O[C@@H](n2cnc3c(NC(=O)Nc4cccc(Cl)c4)nc(C#Cc4ccccc4)nc32)[C@H](O)[C@@H]1O`: the Ki in test [1] is 48700 nM; in test [2] it was 1330 nM; in test [3] it was 611 nM. In test [4], the Ratio came to 2.1.
For `CCCOc1ccc(NC(=O)Nc2ncnc3c2ncn3C2O[C@H](C(=O)NCC)[C@@H](O)[C@H]2O)cc1` (stereo partly specified), in that order: 255 nM, 247 nM, 107 nM and 2.3.
For `CCNC(=O)[C@H]1O[C@@H](n2cnc3c(NC(=O)Nc4ccc(NS(=O)(=O)c5ncccn5)cc4)ncnc32)[C@H](O)[C@@H]1O`, in that order: 16.8 nM, 725 nM, 405 nM and 1.7.
Regarding `CCNC(=O)[C@H]1OC(n2cnc3c(NC(=O)Nc4ccc(NS(=O)(=O)c5cc(C)on5)cc4)ncnc32)[C@H](O)[C@@H]1O` (stereo partly specified), the Ki in test [1] turned out to be 977 nM; in test [2] it was 901 nM; in test [3] it was 155 nM. Besides, in test [4], the Ratio is 5.8.
`CCNC(=O)[C@H]1O[C@@H](n2cnc3c(NC(=O)Nc4nncs4)ncnc32)[C@H](O)[C@@H]1O`: the Ratio in test [4] worked out at 0.037.
For `CCNC(=O)[C@H]1O[C@@H](n2cnc3c(NC(=O)NCc4ccccc4)ncnc32)[C@H](O)[C@@H]1O`, in test [4], the Ratio is 4.5.
As to `CCNC(=O)[C@H]1O[C@@H](n2cnc3c(NC(=O)Nc4ccc(C(C)=O)cc4)ncnc32)[C@H](O)[C@@H]1O`, the Ratio in test [4] amounted to 3.5.
For the molecule `CCNC(=O)[C@H]1O[C@@H](n2cnc3c(NC(=O)N[C@@H](C)c4ccccc4)ncnc32)[C@H](O)[C@@H]1O`, the Ratio in test [4] was found to be 1.7.
As for `CCNC(=O)[C@H]1O[C@@H](n2cnc3c(NC(=O)Nc4ccc(S(N)(=O)=O)cc4)ncnc32)[C@H](O)[C@@H]1O`, the Ratio in test [4] was 47.
For the molecule `CCNC(=O)[C@H]1O[C@@H](n2cnc3c(NC(=O)Nc4ccc(OC)cc4)nc(C#CCCCc4ccccc4)nc32)[C@H](O)[C@@H]1O`, the figures for the Ki in test [1] and in test [3] were 1670 nM and 89.5 nM, respectively. Moreover, the Ratio in test [4] turned out to be 160.
In the case of `CCNC(=O)[C@H]1O[C@@H](n2cnc3c(NC(=O)c4ccccc4)ncnc32)[C@H](O)[C@@H]1O`, the Ratio in test [4] came out at 0.3.
As for `CCNC(=O)[C@H]1O[C@@H](n2cnc3c(NC(=O)Nc4ccc(OC)cc4)nc(I)nc32)[C@H](O)[C@@H]1O`, the Ki in test [1] is 260 nM; in test [2], 29.4 nM; in test [3], 251 nM. The Ratio in test [4] worked out at 0.12.
For the molecule `CCNC(=O)[C@H]1O[C@@H](n2cnc3c(NC(=O)NCc4ccco4)ncnc32)[C@H](O)[C@@H]1O`, the results for the Ki in test [1], in test [2] and in test [3] were 1860 nM, 419 nM and 713 nM, respectively. Further, in test [4], the Ratio was found to be 0.58.
As to `CCNC(=O)[C@H]1O[C@@H](n2cnc3c(NC(=O)Nc4cccc(Cl)c4)nc(I)nc32)[C@H](O)[C@@H]1O`, the Ki in test [1] was 10600 nM; in test [2] it was 103 nM; in test [3] it was 315 nM. The Ratio in test [4] is 0.33.
Take `CCNC(=O)[C@H]1O[C@@H](n2cnc3c(NC(=O)c4ccc(OC)cc4)ncnc32)[C@H](O)[C@@H]1O`: the Ratio in test [4] is 0.1.
On to `CCNC(=O)[C@H]1O[C@@H](n2cnc3c(NC(=O)Nc4ccc(OC)cc4)nc(C#Cc4ccccc4)nc32)[C@H](O)[C@@H]1O`, for which the Ki was 4790 nM in test [2] and 154 nM in test [3]. In test [5], the inhibition turned out to be 29%. For the same molecule, the Ratio in test [4] amounted to 31.
Turning to `CCNC(=O)[C@H]1O[C@@H](n2cnc3c(NC(=O)NCCc4ccccc4)ncnc32)[C@H](O)[C@@H]1O`, the Ki in test [1] is 2650 nM; in test [2], 129 nM; in test [3], 149 nM. The Ratio in test [4] is 0.86.
As for `CCNC(=O)[C@H]1O[C@@H](n2cnc3c(NC(=O)c4ccccc4Cl)ncnc32)[C@H](O)[C@@H]1O`, the Ki in test [1] came out at 1960 nM; in test [2] it was 1170 nM; in test [3] it was 754 nM. The Ratio in test [4] amounted to 1.6.
On to `CCNC(=O)[C@H]1O[C@@H](n2cnc3c(N(C(=O)Nc4ccc(Cl)cn4)C(=O)Nc4ccc(Cl)cn4)ncnc32)[C@H](O)[C@@H]1O`, for which the Ratio in test [4] stood at 0.13.
In the case of `CCNC(=O)[C@H]1O[C@@H](n2cnc3c(NC(=O)Nc4ccc(NS(=O)(=O)c5ccccn5)cc4)ncnc32)[C@H](O)[C@@H]1O`, the Ki in test [1] was determined as 740 nM; in test [2], 292 nM; in test [3], 54.1 nM. For the same molecule, the Ratio in test [4] was found to be 5.4.
Take `CCCCC#Cc1nc(NC(=O)Nc2ccc(OC)cc2)c2ncn([C@@H]3O[C@H](C(=O)NCC)[C@@H](O)[C@H]3O)c2n1`: the Ki in test [1] came out at 2330 nM; in test [2], 428 nM; in test [3], 211 nM. Also, the Ratio in test [4] was determined as 2.
For `CCCCC#Cc1nc(NC(=O)Nc2cccc(Cl)c2)c2ncn([C@@H]3O[C@H](C(=O)NCC)[C@@H](O)[C@H]3O)c2n1`, in that order: 7130 nM, 2040 nM, 581 nM and 3.5.
In the case of `CNC(=O)[C@H]1OC(n2cnc3c(NCc4cccc(I)c4Cl)ncnc32)[C@H](O)[C@@H]1O` (stereo partly specified), the Ki came to 470 nM in test [1], 820 nM in test [2] and 0.33 nM in test [3]. Besides, the Ratio in test [4] is 2500.
`CCNC(=O)[C@H]1O[C@@H](n2cnc3c(NC(=O)c4ccc(-c5ccccc5)cc4)ncnc32)[C@H](O)[C@@H]1O`: the Ratio in test [4] came out at 0.006.
As to `CCNC(=O)[C@H]1O[C@@H](n2cnc3c(NC(=O)Nc4ccc(OC)cc4)nc(Cl)nc32)[C@H](O)[C@@H]1O`, the Ki in test [1] amounted to 59 nM; in test [2], 22 nM; in test [3], 17.1 nM. In addition, the Ratio in test [4] amounted to 1.2.
On to `CCNC(=O)[C@H]1O[C@@H](n2cnc3c(NC(=O)Nc4ccc(OC)cc4)nc(C#CC(O)c4ccccc4)nc32)[C@H](O)[C@@H]1O` (stereo partly specified), for which the Ki stood at 75.1 nM in test [2] and 324 nM in test [3]. In test [5], this molecule showed an inhibition of 12%. The Ratio in test [4] worked out at 0.23.
The corresponding values for `CCNC(=O)[C@H]1O[C@@H](n2cnc3c(NC(=O)Nc4cccc(Cl)c4)nc(C#CC(O)c4ccccc4)nc32)[C@H](O)[C@@H]1O` (stereo partly specified) are 814 nM, 696 nM, 12% and 1.2.
As for `CCNC(=O)[C@H]1O[C@@H](n2cnc3c(NC(=O)N[C@H](C)c4ccccc4)ncnc32)[C@H](O)[C@@H]1O`, the Ratio in test [4] was found to be 27.
With `CCNC(=O)[C@H]1O[C@@H](n2cnc3c(NC(=O)Cc4ccc(Cl)cc4Cl)ncnc32)[C@H](O)[C@@H]1O`, the Ratio in test [4] was 0.095.
